From US20250099405A1, “COMPOSITIONS, METHODS, AND DEVELOPMENT OF ARID4B INHIBITORS” (University of Kentucky Research Foundation, priority 2022, published 2025)

Tests used:
HA-ARID4B = biological target: T1, HA-ARID4B (Homo sapiens, UniProt Q4LE39); assay: CETSA in HEK-293T cells expressing HA-ARID4B; format: cell-based; settings: 10 μM, 2 h
T1 construct: transfected with vector, full-length ARID4B or ARID4B deletion mutants; expressed in transfected cells; host or cells: HEK-293T
T1 sequence (Q4LE39 1-1312): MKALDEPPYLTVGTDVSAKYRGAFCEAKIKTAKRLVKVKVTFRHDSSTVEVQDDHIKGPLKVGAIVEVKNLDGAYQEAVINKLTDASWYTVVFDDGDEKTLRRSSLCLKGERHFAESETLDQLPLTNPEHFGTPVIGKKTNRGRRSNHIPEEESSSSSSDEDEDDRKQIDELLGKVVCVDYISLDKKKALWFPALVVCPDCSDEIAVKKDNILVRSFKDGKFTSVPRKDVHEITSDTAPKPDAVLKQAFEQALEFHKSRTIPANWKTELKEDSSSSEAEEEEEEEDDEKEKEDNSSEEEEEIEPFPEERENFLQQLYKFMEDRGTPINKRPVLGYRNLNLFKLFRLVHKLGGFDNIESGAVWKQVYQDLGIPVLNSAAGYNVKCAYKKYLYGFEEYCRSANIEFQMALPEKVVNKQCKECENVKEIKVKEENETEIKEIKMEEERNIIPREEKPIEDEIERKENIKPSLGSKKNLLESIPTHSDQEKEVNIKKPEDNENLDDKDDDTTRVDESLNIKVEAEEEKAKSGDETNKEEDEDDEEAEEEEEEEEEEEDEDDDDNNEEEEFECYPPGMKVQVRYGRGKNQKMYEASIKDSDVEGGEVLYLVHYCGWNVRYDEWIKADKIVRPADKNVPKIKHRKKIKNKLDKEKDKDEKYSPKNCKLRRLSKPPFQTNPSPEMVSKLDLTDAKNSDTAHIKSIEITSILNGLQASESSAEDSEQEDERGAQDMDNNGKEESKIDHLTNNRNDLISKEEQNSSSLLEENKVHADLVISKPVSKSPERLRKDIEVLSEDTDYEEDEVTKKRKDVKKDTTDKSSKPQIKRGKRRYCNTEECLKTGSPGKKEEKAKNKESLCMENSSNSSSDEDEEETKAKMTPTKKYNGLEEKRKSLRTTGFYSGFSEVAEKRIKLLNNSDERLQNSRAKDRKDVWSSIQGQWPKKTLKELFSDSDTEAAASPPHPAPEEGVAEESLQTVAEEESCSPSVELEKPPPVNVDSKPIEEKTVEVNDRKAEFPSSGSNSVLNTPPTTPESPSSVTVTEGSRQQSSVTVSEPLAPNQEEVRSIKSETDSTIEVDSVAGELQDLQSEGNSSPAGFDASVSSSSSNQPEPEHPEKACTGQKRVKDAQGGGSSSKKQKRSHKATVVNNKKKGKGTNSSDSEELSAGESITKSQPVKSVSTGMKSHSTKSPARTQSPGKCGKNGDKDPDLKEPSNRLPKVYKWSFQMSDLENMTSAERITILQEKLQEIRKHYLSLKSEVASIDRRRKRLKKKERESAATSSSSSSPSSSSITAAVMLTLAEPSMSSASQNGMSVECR
Experimental: (B-C) show cells expressing HA-ARID4B (C) or HA-ARID4BIC (D) treated or not with ARD150 (10 μM) for 2 h were used for CESTA. […] (D-E) show cells expressing HA-ARID4B (D) or Flag-ARID4A (E) treated or not with RWR-18 (10 μM) for 2 h were used for CESTA. […] Data are means±SEM from three experiments. *P<0.05, **P<0.01, ns, not significant.
Using CETSA (cellular thermal shift assay) to examine whether ARD150 or RWR-18 binds to ARID4B, MCF7 cells treated or not with ARD150 or RWR-18 for 2 h were collected, followed by heating at 46, 49, 52, 55, and 58° C. to denature and precipitate ARID4B protein, cell lysis, removal of cell debris and aggregates by centrifugation, and finally detection of remaining thermostable ARID4B protein by western blot. The ARID4B aggregation temperatures without ARD150 were determined to be 49-52° C., but shifted to 52-55° C. after treatment with ARD150 and even more so with RWR-18 (FIG. 15A-D). To determine whether ARD150 and RWR-18 targets the chromodomain of ARID4B, CESTA was performed using chromodomain deletion mutant (ARID4BAC). HEK-293T cells expressing HA-ARID4B or HA-ARID4BAC were treated or not with ARD150 (10 μM) for 2 h and processed for CESTA.

ARID4B chromodomain = biological target: T2, ARID4B chromodomain (Homo sapiens, UniProt Q4LE39); assay: Isothermal titration calorimetry (ITC); format: binding
T2 sequence (Q4LE39 572-624 limits assumed): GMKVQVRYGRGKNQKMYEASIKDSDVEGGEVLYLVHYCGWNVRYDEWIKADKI
Source text: It was then undertaken to identify compounds that inhibit ARID4B, focusing on the chromodomain therein. First, the structure of ARID4B was created using a homology model based on an optimized computational platform that combines the iterative threading assembly refinement (TASSER) and SWISSMODEL (FIG. 14A-B). Protein structure prioritization was based on protein-model accuracy, quantitatively measured C-score, TM-score and RMSD value. Next, in silico screening of 160,000 drug-like diverse small molecules from MOE's chemical repository combined with biophysical characterization including isothermal calorimetry (ITC, FIG. 16) and circular dichroism (data not shown) of identified compound ARD150 with recombinant ARID4B chromodomain informed chemical synthesis of diverse scaffolds.
Isothermal titration calorimetry (ITC) was used to confirm the binding of ARD150 and its derivative RWR18 (derived from ARD150 with slight structural modifications) to ARID4B chromodomain and to determine the Kd, reaction stoichiometry (n), enthalpy (ΔH) and entropy (ΔS). […] This highlights to power of rational design to tune the target engagement and affinity of ligands.

MCF7 = assay: MTT proliferation assay, MCF7; format: cell-based; settings: Homo sapiens, MCF7, 336 h, 14 days
Experimental: (§1) To determine the EC50 of ARD150 and two of its derivatives in breast cancer, MCF7, ZR75-1 (wild-type ERα+), and MCF7 Y537S (constitutively activate ERα mutant) and their ARID4B KO counterparts were seeded in 24 well plate and treated with the various concentrations (0, 0.1, 1, 5, 10, 20, 40, 60, and 100 μM) of ARD150 and RWR-18 for 14 days. […] Knockout of ARID4B renders cells less sensitive to these compounds.

T47D = assay: MTT proliferation assay, T47D; format: cell-based; settings: data not shown
MCF10A = assay: Proliferation assay, non-tumorigenic MCF10A; format: cell-based; settings: MCF10A expresses lower ARID4B
MCF7 Y537S = assay: MTT proliferation assay, MCF7 Y537S; format: cell-based; settings: data not shown
Experimental: as §1

| SMILES | shift of aggregation temperatures of HA-ARID4B (HA-ARID4B) | Kd (ARID4B chromodomain) [µM] | EC50 (MCF7) [µM] | EC50 for T47D (T47D) | effect on non-tumorigenic MCF10A (MCF10A) | EC50 for MCF7 Y537S (MCF7 Y537S) |
| --- | --- | --- | --- | --- | --- | --- |
| COc1ccc(C(=O)NCCCN2CCOCC2)cc1OC [ARD150] | resulted in a shift of aggregation temperatures | 3.5 | 13.8 | comparable to that of MCF7 | insensitive | comparable to that of MCF7 |
| O=C(COc1ccc(OCc2ccccc2)cc1)NCCCN1CCOCC1 [RWR-18] | resulted in a shift of aggregation temperatures | 1 | 7.9 | comparable to that of MCF7 | insensitive | comparable to that of MCF7 |
